Measurements published in ChEMBL document CHEMBL1201862, “PubChem BioAssay data set” (2004).
Activity calls are given as the source filed them.

What was measured:
[1] = target: Glyceraldehyde-3-phosphate dehydrogenase (Homo sapiens, UniProt P04406)
[2] = target: T1, Alkaline phosphatase, tissue-nonspecific isozyme (Homo sapiens, UniProt P05186); assay: human TNAP enzyme inhibitors, SAR follow-up, biochemical, luminescent, dose response (AID 1056)
T1 sequence (P05186 whole entry): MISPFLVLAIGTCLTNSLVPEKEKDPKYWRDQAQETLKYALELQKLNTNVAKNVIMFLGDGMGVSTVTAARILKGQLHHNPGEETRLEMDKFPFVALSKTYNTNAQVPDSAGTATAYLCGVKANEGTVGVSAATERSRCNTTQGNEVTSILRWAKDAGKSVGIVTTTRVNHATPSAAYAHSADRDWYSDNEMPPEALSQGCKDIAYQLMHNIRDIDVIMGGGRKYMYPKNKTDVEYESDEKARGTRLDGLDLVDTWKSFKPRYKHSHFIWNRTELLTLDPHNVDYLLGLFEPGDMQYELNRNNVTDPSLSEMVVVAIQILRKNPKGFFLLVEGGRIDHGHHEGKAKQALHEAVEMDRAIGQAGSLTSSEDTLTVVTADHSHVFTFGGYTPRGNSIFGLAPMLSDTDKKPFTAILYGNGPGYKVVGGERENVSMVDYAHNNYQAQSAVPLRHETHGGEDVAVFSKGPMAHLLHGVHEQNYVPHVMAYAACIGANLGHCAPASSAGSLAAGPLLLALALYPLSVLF

[3] = target: Alkaline phosphatase, placental type (Homo sapiens, UniProt P05187); assay: PLAP enzyme inhibitors, confirmation, biochemical, luminescence (AID 1512); assay type: functional
CAAX prenyl protease 2 = CAAX prenyl protease 2 (Saccharomyces cerevisiae S288c, UniProt Q03530); assay type: biochemical
Trypsin = Trypsin (Sus scrofa, UniProt P00761); assay: porcine trypsin inhibitors, dose response, selectivity assay for Rce1 protease inhibitor project, biochemical, quenched peptide fluorescence, cherry-pick (AID 488789)
[4] = target: Eukaryotic translation initiation factor 4E (Mus musculus, UniProt P63073); assay: eIF4E–eIF4G protein interaction inhibitors, dose response, biochemical, TR-FRET (AID 855); assay type: functional;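 note: potency for disrupting eIF4E binding to eIF4GI seen as loss of FRET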
[5] = inhibitors of intracellular T. cruzi replication, confirmation, NIH3T3 host cells, beta-gal luminescence (AID 2044); assay type: functional, cell-based;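 note: intracellular parasites grown in NIH/3T3 mouse fibroblasts as host cells; luminescent beta-galactosidase reporter signal from transgenic T. cruzi replicating inside host cells; inhibitors lower the luminescence signal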
[6] = insulin promoter down-regulators in MIN6 cells, imaging, high-content screening, mouse beta cells (AID 1628); assay type: functional
[7] = cytotoxicity in MIN6 insulinoma cells, dose response, cytotoxicity control, cell-based, mouse insulinoma (AID 2122); assay type: functional;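 note: confirmatory high-throughput counterscreen run to flag cytotoxic compounds; mouse MIN-6 beta cells carrying an insulin promoter eGFP reporter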
[8] = cytotoxicity toward NIH3T3 fibroblasts, dose response, counter-screen, cell-based, ATP luminescence, mouse fibroblasts (AID 2010); assay type: functional;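 note: cells exposed to compound for about 90 hours before reading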
INS1 = assay: beta cell apoptosis inhibitors, cytokine rescue, dose response, luminescence, retest (AID 449756); assay type: functional, cell-based; details: Rattus norvegicus;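 note: cell death triggered by IL-1 beta plus TNF-alpha plus IFN-gamma mixture; protective hits raise ATP signal compared with cytokine alone wells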
[9] = mammalian cell cytotoxicity, dose response, cytotoxicity control, plate reader, cherry-pick samples (AID 504397); assay type: functional, cell-based
[10] = target: Voltage-dependent T-type calcium channel subunit alpha-1H (Homo sapiens, UniProt O95180); assay type: functional;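 note: channel activity triggered by adding a high calcium stimulation buffer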
[11] = control 3'UTR Renilla luciferase suppression, dose response, counter-screen for Shn3 inhibitor project, cell-based, Clone20-Shn3RL, cherry-picked (AID 624133); assay type: functional
[12] = Shn3 3'UTR reporter inhibitors, dose response, cell-based, Clone20 osteoblasts, firefly luciferase, cherry-picked (AID 624132); assay type: functional;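 note: firefly luciferase luminescence from reporter carrying the Shn3 3'UTR in osteoblasts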
[13] = target: Neurotensin receptor type 1 (Homo sapiens, UniProt P30989); assay type: functional;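 note: Image-based confirmatory dose-response assay measuring agonist activity at NTR1; NTR1-expressing U2OS osteosarcoma cells imaged for beta-arrestin GFP spot formation; agonist potency where compounds increase beta-arrestin recruitment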
[14] = microbe, parasite or virus in culture; assay type: functional; details: Mycobacterium tuberculosis
[15] = test system: Streptococcus sp. 'group A'; assay: growth inhibition of control SK(-) GAS strain, dose response, counter-screen for streptokinase expression inhibitor project, luminescence, kanamycin, BacTiterGlo, confirmation (AID 1900); assay type: functional, organism-based
[16] = HepG2 cell cytotoxicity, dose response, cytotoxicity control for Shn3 inhibitor project, CellTiter-Glo, cherry-picked (AID 624134); assay type: functional, cell-based
[17] = THP-1 cell cytotoxicity, dose response, cytotoxicity control for Vif-APOBEC3G degradation inhibitor project, THP-1 cells (AID 1117359); assay type: functional; details: Human immunodeficiency virus 1, THP-1
Streptokinase A = target: T2, Streptokinase A (Streptococcus pyogenes serotype M1, UniProt P10520); assay: S. pyogenes streptokinase expression inhibitors, potency, dose response, plasminogen activation absorbance, OD405 (AID 1914); assay type: functional, Streptococcus pyogenes M1 GAS;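 note: secreted streptokinase activity via plasminogen activation per viability signal from cell pellet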
T2 sequence (P10520 whole entry): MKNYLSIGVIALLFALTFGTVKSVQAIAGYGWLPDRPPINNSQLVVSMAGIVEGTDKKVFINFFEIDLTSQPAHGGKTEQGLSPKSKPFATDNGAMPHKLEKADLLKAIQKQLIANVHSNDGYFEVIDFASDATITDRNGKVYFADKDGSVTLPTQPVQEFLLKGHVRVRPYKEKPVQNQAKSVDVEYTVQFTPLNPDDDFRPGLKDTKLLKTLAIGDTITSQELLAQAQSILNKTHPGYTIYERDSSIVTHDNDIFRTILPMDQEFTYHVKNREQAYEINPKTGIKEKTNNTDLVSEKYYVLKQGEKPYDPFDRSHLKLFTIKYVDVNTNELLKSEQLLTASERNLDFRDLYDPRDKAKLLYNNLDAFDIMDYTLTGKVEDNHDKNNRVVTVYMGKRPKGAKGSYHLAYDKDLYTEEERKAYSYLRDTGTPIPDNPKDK

Streptococcus = assay: Group A Streptococcus viability loss, dose response, counter-screen for streptokinase expression inhibitor project, luminescence, BacTiterGlo (AID 1915); assay type: functional, organism-based;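 note: potency for reduction of bacterial viability or growth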

Chain of Trypsin (P00761 whole entry): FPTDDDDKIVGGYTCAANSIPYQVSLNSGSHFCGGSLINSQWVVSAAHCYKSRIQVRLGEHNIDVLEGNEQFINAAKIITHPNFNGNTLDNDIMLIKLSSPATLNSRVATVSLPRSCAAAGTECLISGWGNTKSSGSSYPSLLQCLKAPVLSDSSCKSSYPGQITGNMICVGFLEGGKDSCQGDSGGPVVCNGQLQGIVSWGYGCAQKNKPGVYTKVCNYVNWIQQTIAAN
Chain of Voltage-dependent T-type calcium channel subunit alpha-1H (O95180 whole entry): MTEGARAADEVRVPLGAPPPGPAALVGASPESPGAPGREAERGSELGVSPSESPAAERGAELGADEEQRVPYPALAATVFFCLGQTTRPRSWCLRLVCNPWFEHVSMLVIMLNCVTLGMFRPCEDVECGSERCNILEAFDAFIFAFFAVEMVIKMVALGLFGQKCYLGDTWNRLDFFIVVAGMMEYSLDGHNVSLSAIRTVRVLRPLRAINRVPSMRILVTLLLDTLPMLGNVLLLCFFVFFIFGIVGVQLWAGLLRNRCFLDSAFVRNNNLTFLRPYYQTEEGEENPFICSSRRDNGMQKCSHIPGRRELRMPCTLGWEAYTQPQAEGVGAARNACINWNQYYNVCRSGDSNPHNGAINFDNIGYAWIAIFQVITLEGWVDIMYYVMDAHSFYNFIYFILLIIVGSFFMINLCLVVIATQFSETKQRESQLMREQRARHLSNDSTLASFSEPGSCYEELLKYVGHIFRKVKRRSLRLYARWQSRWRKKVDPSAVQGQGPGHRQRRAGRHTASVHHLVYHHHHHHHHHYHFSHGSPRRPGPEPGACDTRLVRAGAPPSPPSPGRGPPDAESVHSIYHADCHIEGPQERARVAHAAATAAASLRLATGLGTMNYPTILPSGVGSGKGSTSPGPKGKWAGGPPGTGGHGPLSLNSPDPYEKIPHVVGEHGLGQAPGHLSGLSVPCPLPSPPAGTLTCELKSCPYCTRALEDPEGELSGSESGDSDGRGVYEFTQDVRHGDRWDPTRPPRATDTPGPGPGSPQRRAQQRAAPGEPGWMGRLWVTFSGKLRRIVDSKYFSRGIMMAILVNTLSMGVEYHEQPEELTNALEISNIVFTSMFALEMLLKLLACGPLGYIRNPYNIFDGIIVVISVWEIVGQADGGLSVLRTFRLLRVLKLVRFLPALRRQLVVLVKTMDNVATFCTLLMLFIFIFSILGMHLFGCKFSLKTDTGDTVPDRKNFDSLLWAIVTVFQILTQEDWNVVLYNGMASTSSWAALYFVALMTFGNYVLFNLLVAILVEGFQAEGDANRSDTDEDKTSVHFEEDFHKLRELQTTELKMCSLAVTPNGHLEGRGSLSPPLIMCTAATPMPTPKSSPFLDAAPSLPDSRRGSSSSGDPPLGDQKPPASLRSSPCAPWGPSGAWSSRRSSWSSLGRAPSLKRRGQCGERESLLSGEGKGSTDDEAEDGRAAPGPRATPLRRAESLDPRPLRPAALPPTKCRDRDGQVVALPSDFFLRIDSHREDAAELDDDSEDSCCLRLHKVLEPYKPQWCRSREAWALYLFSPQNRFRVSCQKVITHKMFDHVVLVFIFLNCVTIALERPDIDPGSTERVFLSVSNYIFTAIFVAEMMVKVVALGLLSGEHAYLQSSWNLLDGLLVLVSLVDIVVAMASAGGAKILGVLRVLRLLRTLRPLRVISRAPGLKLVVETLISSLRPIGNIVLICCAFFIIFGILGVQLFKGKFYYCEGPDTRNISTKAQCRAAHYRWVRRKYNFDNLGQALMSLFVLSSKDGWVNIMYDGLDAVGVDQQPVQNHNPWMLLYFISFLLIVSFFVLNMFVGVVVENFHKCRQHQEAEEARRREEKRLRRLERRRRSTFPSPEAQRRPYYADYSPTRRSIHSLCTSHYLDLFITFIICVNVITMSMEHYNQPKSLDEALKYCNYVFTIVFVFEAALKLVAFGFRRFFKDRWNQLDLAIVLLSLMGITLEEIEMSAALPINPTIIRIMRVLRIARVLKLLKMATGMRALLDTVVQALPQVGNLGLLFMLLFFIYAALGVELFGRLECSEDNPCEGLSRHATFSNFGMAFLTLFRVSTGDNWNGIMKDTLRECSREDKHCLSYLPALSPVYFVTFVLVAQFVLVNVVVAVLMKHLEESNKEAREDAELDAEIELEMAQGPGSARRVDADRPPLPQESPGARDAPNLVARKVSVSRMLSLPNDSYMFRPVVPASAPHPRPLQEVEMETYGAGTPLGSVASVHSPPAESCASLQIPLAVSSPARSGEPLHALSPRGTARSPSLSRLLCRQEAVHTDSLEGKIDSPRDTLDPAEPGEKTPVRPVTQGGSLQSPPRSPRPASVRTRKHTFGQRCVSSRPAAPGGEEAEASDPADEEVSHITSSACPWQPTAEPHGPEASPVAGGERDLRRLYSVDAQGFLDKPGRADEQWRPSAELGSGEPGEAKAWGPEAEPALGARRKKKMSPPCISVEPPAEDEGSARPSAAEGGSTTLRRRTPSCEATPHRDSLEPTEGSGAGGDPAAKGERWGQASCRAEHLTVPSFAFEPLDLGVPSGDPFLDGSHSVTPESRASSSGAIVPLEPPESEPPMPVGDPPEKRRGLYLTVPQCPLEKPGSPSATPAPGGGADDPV
Chain of Neurotensin receptor type 1 (P30989 whole entry): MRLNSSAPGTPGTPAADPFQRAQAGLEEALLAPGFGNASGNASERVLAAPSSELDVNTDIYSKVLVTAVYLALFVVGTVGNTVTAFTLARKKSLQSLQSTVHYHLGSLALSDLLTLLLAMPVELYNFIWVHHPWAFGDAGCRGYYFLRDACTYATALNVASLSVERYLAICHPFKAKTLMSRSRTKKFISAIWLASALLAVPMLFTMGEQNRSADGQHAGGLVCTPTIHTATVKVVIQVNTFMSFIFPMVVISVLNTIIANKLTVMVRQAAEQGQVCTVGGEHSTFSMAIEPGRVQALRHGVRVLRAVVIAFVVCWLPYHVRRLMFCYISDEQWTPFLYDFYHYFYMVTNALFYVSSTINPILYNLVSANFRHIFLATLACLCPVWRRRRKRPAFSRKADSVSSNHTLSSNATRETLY
Chain of CAAX prenyl protease 2 (Q03530 whole entry): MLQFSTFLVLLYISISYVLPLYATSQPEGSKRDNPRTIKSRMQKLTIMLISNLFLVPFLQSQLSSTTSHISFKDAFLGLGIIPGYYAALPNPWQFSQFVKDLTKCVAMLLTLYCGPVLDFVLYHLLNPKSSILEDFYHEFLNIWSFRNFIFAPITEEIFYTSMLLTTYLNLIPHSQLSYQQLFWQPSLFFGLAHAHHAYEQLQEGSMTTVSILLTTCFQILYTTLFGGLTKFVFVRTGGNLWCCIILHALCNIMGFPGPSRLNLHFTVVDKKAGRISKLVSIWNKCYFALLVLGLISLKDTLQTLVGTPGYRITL
Chain of Alkaline phosphatase, placental type (P05187 whole entry): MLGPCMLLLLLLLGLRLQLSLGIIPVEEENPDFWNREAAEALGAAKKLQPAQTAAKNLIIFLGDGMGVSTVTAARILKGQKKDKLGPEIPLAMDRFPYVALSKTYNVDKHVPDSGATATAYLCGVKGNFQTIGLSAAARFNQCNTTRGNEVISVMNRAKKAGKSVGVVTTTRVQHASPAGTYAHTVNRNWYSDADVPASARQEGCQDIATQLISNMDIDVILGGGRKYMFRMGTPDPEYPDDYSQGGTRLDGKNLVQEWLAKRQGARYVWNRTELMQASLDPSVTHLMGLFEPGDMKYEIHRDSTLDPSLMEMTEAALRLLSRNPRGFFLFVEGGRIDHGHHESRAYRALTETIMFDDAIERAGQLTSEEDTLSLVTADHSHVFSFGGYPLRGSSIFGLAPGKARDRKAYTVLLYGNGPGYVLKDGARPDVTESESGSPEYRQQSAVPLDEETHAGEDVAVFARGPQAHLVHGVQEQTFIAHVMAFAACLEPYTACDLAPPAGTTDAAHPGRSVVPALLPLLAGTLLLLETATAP
Chain of Eukaryotic translation initiation factor 4E (P63073 whole entry): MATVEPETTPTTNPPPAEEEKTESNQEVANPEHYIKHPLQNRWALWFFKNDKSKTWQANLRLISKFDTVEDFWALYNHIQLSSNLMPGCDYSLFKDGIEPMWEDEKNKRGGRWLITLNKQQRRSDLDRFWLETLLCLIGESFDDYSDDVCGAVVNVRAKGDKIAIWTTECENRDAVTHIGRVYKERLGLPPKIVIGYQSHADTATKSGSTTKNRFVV
Chain of Glyceraldehyde-3-phosphate dehydrogenase (P04406 whole entry): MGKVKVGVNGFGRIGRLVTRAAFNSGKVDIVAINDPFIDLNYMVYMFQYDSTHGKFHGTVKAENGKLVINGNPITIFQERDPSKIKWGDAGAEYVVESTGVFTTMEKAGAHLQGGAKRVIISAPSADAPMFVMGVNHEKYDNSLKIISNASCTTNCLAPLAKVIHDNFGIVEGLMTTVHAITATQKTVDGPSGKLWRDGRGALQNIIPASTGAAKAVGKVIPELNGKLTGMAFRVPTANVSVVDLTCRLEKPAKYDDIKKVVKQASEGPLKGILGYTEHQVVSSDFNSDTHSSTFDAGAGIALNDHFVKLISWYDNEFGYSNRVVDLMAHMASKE

COc1cc(CCc2nc(N)nn2-c2ccccc2)cc(OC)c1OC
IC50 [1]: > 100 µM (not active) | IC50 [2]: > 100 µM (inactive) | IC50 [3]: > 100 µM (inactive)

N#Cc1c(Cl)nc(Cl)c2c1CCN(Cc1ccccc1)C2
AC50 (CAAX prenyl protease 2): 22.8 µM (active) | AC50 (Trypsin): 7.02 µM (active)

Cc1ccc(NC(=O)CN2C(=O)S/C(=C/c3ccc(-c4cccc(C(=O)O)c4)o3)C2=O)cc1
IC50 [4]: 50 µM (inactive)

Cc1ccc(-c2cn3c([n+]2-c2ccccc2)CCC3)cc1
EC50 [5]: 0.94 µM (active) | IC50 [6]: < 0.25 µM (active) | IC50 [7]: < 0.25 µM (active) | EC50 [8]: > 60 µM (not active) | AC50 (INS1): 2.5 µM (active)

O=C(CN(C1CCCCC1)C1CCCCC1)N1CCc2ccccc2C1
AC50 [9]: 204 µM (active) | EC50 [10]: 4.36 µM (active)

Cc1cc(C)n(-c2nc(Nc3ccccc3C(F)(F)F)nc(-n3nc(C)cc3C)n2)n1
AC50 [11]: 5.19 µM (active) | AC50 [12]: 5.49 µM (active) | EC50 [13]: 26 µM (inactive) | CC50 [14]: 12.4 µM (active) | EC50 [15]: 5.15 µM (active) | AC50 [16]: 58.1 µM (active) | CC50 [17]: 3.77 µM (active) | AC50 (INS1): 4.01 µM (active) | EC50 (Streptokinase A): > 150 µM (not active) | EC50 (Streptococcus): 8.12 µM (active)

Cc1ccc(-c2cc(C(F)F)n3ncc(C(=O)NN4CCCCC4)c3n2)cc1
IC50 [6]: 2.39 µM (active) | IC50 [7]: 6.4 µM (active)
